Laboratory results published in patent publication US12415834B2, “GhR-binding peptide and composition comprising same” (priority 2021, dated 2025).
Starred links: 1 amine or outer side, 2 acyl side, 3 side chain; linkers in the order of their positions; H or OH if unused. Positions of bridges follow the written chain, without caps; N, C: chain ends. Non-standard residues stand in square brackets, D forms with d. Residues, ends and D or L forms follow the SMILES beside them. Groups on a side chain read outwards from the residue. *: point of attachment. X3 = NC(=O)[C@H](CCCCN*)NC(=O)CC[C@H](NC(=O)CC[C@H](NC(=O)CCCCCCCCCCCCCCC(=O)O)C(=O)O)C(=O)O; X19 = Cc1ccc(CCCC(=O)N[C@@H](CCC(=O)N[C@@H](CCC(=O)N[C@@H](CCCCN*)C(N)=O)C(=O)O)C(=O)O)cc1; Trp(1-CH2CO) = O=C([C@H](Cc1cn(CC(=O)[*:3])c2ccccc12)N[*:1])[*:2]; Trp(5-OMe) = COc1ccc2[nH]cc(C[C@H](N)C(=O)O)c2c1; Butanoyl(4-(4-I-phenyl)) = O=C(CCCc1ccc(I)cc1)*; Trp(5-OH) = N[C@@H](Cc1c[nH]c2ccc(O)cc12)C(=O)O; Phe(4-COOH) = N[C@@H](Cc1ccc(C(=O)O)cc1)C(=O)O; Piperazinyl(4-CH2COOH) = O=C(O)CN1CCN(*)CC1; X7 = O=C(O)CN1CCC(N[*:1])(C(=O)[*:2])CC1; C16 diacid = O=C(O)CCCCCCCCCCCCCCC(=O)*; γGlu = O=C(O)[C@H](CCC(=O)[*:2])N[*:1]; X9 = O=C(CCCc1ccc(-c2ccccc2)cc1)*; NMeK = CN[C@@H](CCCCN)C(=O)O; Aib = CC(C)(N)C(=O)O; CO = O=C([*:1])[*:2]

molecular target: T1, Recombinant human GhR-Fc protein (Homo sapiens, UniProt P10912); assay: SPR binding assay (Biacore T200, single-cycle kinetics) of peptides against immobilized human GhR-Fc; conditions: not given
T1 construct: purchased R&D Systems
Description: SPR assay was performed using Biacore T200 (cytiva: Former GE Healthcare). After the equilibration of Series S Sensor Chip CM5 (produced by cytiva: Former GE Healthcare) with Running Buffer (HBS-EP with 1% (v/v) DMSO), an EDC/NHS mixture was injected at a flow rate of 10 μL/min for 7 minutes to thereby activate the functional groups on sensor chip. Recombinant human GhR-Fc protein (R&D Systems) in 10 mM Acetate (pH 4.0) was injected immobilized to at a flow rate of 5 μL/min. It took 7 minutes to immobilize the GhR on the substrate surfaces of the sensor chip. Then Ethanolamine was injected at a flow rate of 10 μL/min for 7 minutes. 1M Ethanolamine (aq.) was injected at a flow rate of 10 μL/min for 420 seconds for capping.
Using these Peptide Samples, kinetics of peptides against human GhR-Fc protein were measured. The method adopted for sample measurement was a single-cycle kinetics method. The analysis was conducted using the evaluation software provided with Biacore T200. A DMSO correction curve obtained by solvent correction measurements was applied for the analysis. Kinetics fitting was done on the difference data obtained by subtracting the baseline data from sample measurement data. KD values were calculated based on the association rate constant (ka) and dissociation rate constant (kd). […]

T1 sequence (P10912 with tags, fused parts or gaps limits assumed): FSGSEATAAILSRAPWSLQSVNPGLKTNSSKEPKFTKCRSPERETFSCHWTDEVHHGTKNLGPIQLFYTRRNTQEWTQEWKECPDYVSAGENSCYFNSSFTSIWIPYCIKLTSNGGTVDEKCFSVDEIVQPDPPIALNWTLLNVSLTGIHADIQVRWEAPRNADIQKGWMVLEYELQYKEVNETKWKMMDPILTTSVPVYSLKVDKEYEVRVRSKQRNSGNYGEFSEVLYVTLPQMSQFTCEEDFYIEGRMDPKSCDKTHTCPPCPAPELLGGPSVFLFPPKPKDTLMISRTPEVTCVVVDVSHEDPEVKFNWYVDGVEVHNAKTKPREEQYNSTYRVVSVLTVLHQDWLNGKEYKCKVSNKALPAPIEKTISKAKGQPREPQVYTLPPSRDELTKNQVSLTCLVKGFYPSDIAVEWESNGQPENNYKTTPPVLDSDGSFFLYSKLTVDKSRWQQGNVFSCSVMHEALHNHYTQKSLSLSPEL

Row | SMILES | Kd [nM]
1 | COc1ccc2[nH]cc(C[C@@H]3NC(=O)[C@H](CC(N)=O)NC(=O)[C@H](CO)NC(=O)[C@H](C(C)C)NC(=O)[C@H](C(C)C)NC(=O)[C@H](CCCCNC(=O)CC[C@H](NC(=O)CCCc4ccc(-c5ccccc5)cc4)C(=O)O)N(C)C(=O)[C@H](Cc4ccc(C(=O)O)cc4)NC(=O)CSC[C@@H](C(N)=O)NC(=O)[C@H](C(C)C)NC(=O)C4(CCN(CC(=O)O)CC4)NC(=O)[C@H](Cc4c[nH]c5ccc(O)cc45)NC(=O)[C@H](CCCCN)NC(=O)[C@H](Cc4ccc(C(=O)O)cc4)NC3=O)c2c1 [Compound 37] ({CH2CO}-[Phe(4-COOH)][NMeK]([γGlu-X9])VVSN[Trp(5-OMe)][Phe(4-COOH)]K[Trp(5-OH)][X7]VC-NH2; thioether N-13) | 5.81

same assay, conditions: SPR, hGhR; Table 1 bicyclic peptides; KD calculated from ka and kd; read-out: KD

Row | Kd [nM] | SMILES
2 | 1.93 | CC(C)[C@@H]1NC(=O)[C@H](C(C)C)NC(=O)[C@@H]2CCCCNC(=O)Cn3cc(c4ccccc43)C[C@H](NC(=O)[C@H](CC(N)=O)NC(=O)[C@H](CO)NC1=O)C(=O)N[C@@H](Cc1ccc(O)cc1)C(=O)N[C@@H](CCCCN)C(=O)N[C@@H](Cc1c[nH]c3ccc(O)cc13)C(=O)NC(C)(C)C(=O)N[C@@H](C(C)C)C(=O)N[C@H](C(=O)NCCCC[C@H](NC(=O)CC[C@H](NC(=O)CC[C@H](NC(=O)CCCCCCCCCCCCCCC(=O)O)C(=O)O)C(=O)O)C(N)=O)CSCC(=O)N[C@@H](Cc1ccc(C(=O)O)cc1)C(=O)N2C [Compound 19] ({CH2CO}-[Phe(4-COOH)][NMeK]VVSN[Trp(1-CH2CO)]YK[Trp(5-OH)][Aib]VC-X3; lactam 2-7; thioether N-13)
3 | 0.92 | CC(C)[C@@H]1NC(=O)[C@H](C(C)C)NC(=O)[C@@H]2CCCCNC(=O)Cn3cc(c4ccccc43)C[C@H](NC(=O)[C@H](CC(N)=O)NC(=O)[C@H](CO)NC1=O)C(=O)N[C@@H](Cc1ccc(O)cc1)C(=O)N[C@@H](CCCCN)C(=O)N[C@@H](Cc1c[nH]c3ccc(O)cc13)C(=O)NC(C)(C)C(=O)N[C@@H](C(C)C)C(=O)N[C@H](C(=O)NCC(=O)N1CCC[C@H]1C(=O)N[C@H](CO)C(=O)N[C@H](CO)C(=O)N[C@H](CO)C(=O)N[C@@H](CCCCNC(=O)CC[C@H](NC(=O)CC[C@H](NC(=O)CCCCCCCCCCCCCCC(=O)O)C(=O)O)C(=O)O)C(N)=O)CSCC(=O)N[C@@H](Cc1ccc(O)cc1)C(=O)N2C [Compound 31] ({CH2CO}-Y[NMeK]VVSN[Trp(1-CH2CO)]YK[Trp(5-OH)][Aib]VCGP[dS][dS][dS]K([γGlu-γGlu-C16 diacid])-NH2; lactam 2-7; thioether N-13)
4 | 1.95 | Cc1ccc(CCCC(=O)N[C@@H](CCC(=O)N[C@@H](CCC(=O)N[C@@H](CCCCNC(=O)[C@@H]2CSCC(=O)N[C@@H](Cc3ccc(C(=O)O)cc3)C(=O)N(C)[C@H]3CCCCNC(=O)Cn4cc(c5ccccc54)C[C@H](NC(=O)[C@H](CC(N)=O)NC(=O)[C@H](CO)NC(=O)[C@H](C(C)C)NC(=O)[C@H](C(C)C)NC3=O)C(=O)N[C@@H](Cc3ccc(C(=O)O)cc3)C(=O)N[C@@H](CCCCN)C(=O)N[C@@H](Cc3c[nH]c4ccc(O)cc34)C(=O)NC(C)(C)C(=O)N[C@@H](C(C)C)C(=O)N2)C(N)=O)C(=O)O)C(=O)O)cc1 [Compound 12] ({CH2CO}-[Phe(4-COOH)][NMeK]VVSN[Trp(1-CH2CO)][Phe(4-COOH)]K[Trp(5-OH)][Aib]VC-X19; lactam 2-7; thioether N-13)
5 | 1.57 | CC(C)[C@@H]1NC(=O)[C@H](C(C)C)NC(=O)[C@@H]2CCCCNC(=O)Cn3cc(c4ccccc43)C[C@H](NC(=O)[C@H](CC(N)=O)NC(=O)[C@H](CO)NC1=O)C(=O)N[C@@H](Cc1ccc(O)cc1)C(=O)N[C@@H](CCCCN)C(=O)N[C@@H](Cc1c[nH]c3ccc(O)cc13)C(=O)NC1(CCN(CC(=O)O)CC1)C(=O)N[C@@H](C(C)C)C(=O)N[C@H](C(=O)NCCCC[C@H](NC(=O)CC[C@H](NC(=O)CC[C@H](NC(=O)CCCCCCCCCCCCCCC(=O)O)C(=O)O)C(=O)O)C(N)=O)CSCC(=O)N[C@@H](Cc1ccc(O)cc1)C(=O)N2C [Compound 29] ({CH2CO}-Y[NMeK]VVSN[Trp(1-CH2CO)]YK[Trp(5-OH)][X7]VC-X3; lactam 2-7; thioether N-13)

same assay, conditions: SPR, hGhR; Table 2 monocyclic peptides; KD calculated from ka and kd; read-out: KD

Row | Kd [nM] | SMILES
6 | 5.47 | COc1ccc2[nH]cc(C[C@@H]3NC(=O)[C@H](CC(N)=O)NC(=O)[C@H](CO)NC(=O)[C@H](C(C)C)NC(=O)[C@H](C(C)C)NC(=O)[C@H](CCCCNC(=O)CC[C@H](NC(=O)CCCc4ccc(I)cc4)C(=O)O)N(C)C(=O)[C@H](Cc4ccc(C(=O)O)cc4)NC(=O)CSC[C@@H](C(N)=O)NC(=O)[C@H](C(C)C)NC(=O)C(C)(C)NC(=O)[C@H](Cc4c[nH]c5ccc(O)cc45)NC(=O)[C@H](CCCCNC(=O)N4CCN(CC(=O)O)CC4)NC(=O)[C@H](Cc4ccc(C(=O)O)cc4)NC3=O)c2c1 [Compound 35] ({CH2CO}-[Phe(4-COOH)][NMeK]([γGlu-Butanoyl(4-(4-I-phenyl))])VVSN[Trp(5-OMe)][Phe(4-COOH)]K([CO-Piperazinyl(4-CH2COOH)])[Trp(5-OH)][Aib]VC-NH2; thioether N-13)
7 | 9.67 | COc1ccc2[nH]cc(C[C@@H]3NC(=O)[C@H](CC(N)=O)NC(=O)[C@H](CO)NC(=O)[C@H](C(C)C)NC(=O)[C@H](C(C)C)NC(=O)[C@H](CCCCNC(=O)CC[C@H](NC(=O)CCCc4ccc(I)cc4)C(=O)O)N(C)C(=O)[C@H](Cc4ccc(O)cc4)NC(=O)CSC[C@@H](C(N)=O)NC(=O)[C@H](C(C)C)NC(=O)C(C)(C)NC(=O)[C@H](Cc4c[nH]c5ccc(O)cc45)NC(=O)[C@H](CCCCNC(=O)N4CCN(CC(=O)O)CC4)NC(=O)[C@H](Cc4ccc(O)cc4)NC3=O)c2c1 [Compound 44] ({CH2CO}-Y[NMeK]([γGlu-Butanoyl(4-(4-I-phenyl))])VVSN[Trp(5-OMe)]YK([CO-Piperazinyl(4-CH2COOH)])[Trp(5-OH)][Aib]VC-NH2; thioether N-13)
8 | 2.96 | COc1ccc2[nH]cc(C[C@@H]3NC(=O)[C@H](CC(N)=O)NC(=O)[C@H](CO)NC(=O)[C@H](C(C)C)NC(=O)[C@H](C(C)C)NC(=O)[C@H](CCCCNC(=O)CC[C@H](NC(=O)CC[C@H](NC(=O)CCCc4ccc(I)cc4)C(=O)O)C(=O)O)N(C)C(=O)[C@H](Cc4ccc(C(=O)O)cc4)NC(=O)CSC[C@@H](C(N)=O)NC(=O)[C@H](C(C)C)NC(=O)C(C)(C)NC(=O)[C@H](Cc4c[nH]c5ccc(O)cc45)NC(=O)[C@H](CCCCN)NC(=O)[C@H](Cc4ccc(C(=O)O)cc4)NC3=O)c2c1 [Compound 40] ({CH2CO}-[Phe(4-COOH)][NMeK]([γGlu-γGlu-Butanoyl(4-(4-I-phenyl))])VVSN[Trp(5-OMe)][Phe(4-COOH)]K[Trp(5-OH)][Aib]VC-NH2; thioether N-13)
9 | 2.83 | COc1ccc2[nH]cc(C[C@@H]3NC(=O)[C@H](CC(N)=O)NC(=O)[C@H](CO)NC(=O)[C@H](C(C)C)NC(=O)[C@H](C(C)C)NC(=O)[C@H](CCCCNC(=O)CC[C@H](NC(=O)CC[C@H](NC(=O)CCCc4ccc(I)cc4)C(=O)O)C(=O)O)N(C)C(=O)[C@H](Cc4ccc(O)cc4)NC(=O)CSC[C@@H](C(=O)NCC(=O)N4CCC[C@H]4C(=O)N[C@H](CO)C(=O)N[C@H](CO)C(=O)N[C@H](CO)C(N)=O)NC(=O)[C@H](C(C)C)NC(=O)C(C)(C)NC(=O)[C@H](Cc4c[nH]c5ccc(O)cc45)NC(=O)[C@H](CCCCN)NC(=O)[C@H](Cc4ccc(C(=O)O)cc4)NC3=O)c2c1 [Compound 55] ({CH2CO}-Y[NMeK]([γGlu-γGlu-Butanoyl(4-(4-I-phenyl))])VVSN[Trp(5-OMe)][Phe(4-COOH)]K[Trp(5-OH)][Aib]VCGP[dS][dS][dS]-NH2; thioether N-13)
